Measurements taken from article PMC10914731, “Homo-BacPROTAC-induced degradation of ClpC1 as a strategy against drug-resistant mycobacteria” (Nature Communications, 2024).
≈ marks a conversion by molar mass, not a printed value. Where “and” joins values, the source holds several entries; their conditions need not be identical. Equal values may be shown once. Read-outs that look alike come from different tables or passages of the source.

What was measured:
Msm 700084 = assay: microbe, parasite or virus in culture; assay type: cell-based; details: Mycolicibacterium smegmatis, 700084; read-out: MIC Msm 700084
[1] = target: His6-tagged ClpC1-NTD substrate, M. smegmatis ClpC1P1P2 (UniProt A0R574+P9WPC9); assay: biochemical; assay type: biochemical; details: Msm
in vivo = assay type: in vivo, BALB/cAnNCrl mice
Experimental: The in-life experimental procedures were conducted in strict compliance with German and European animal welfare legislation in an AAALAC-accredited facility. Male BALB/cAnNCrl mice (Charles River Laboratories Research Models and Services, 97633 Sulzfeld, Germany) were used. Animals were 9 weeks old at dosing with a body weight of 21.6–24.3 g. Animals were delivered free of pathogens according to FELASA recommendations with a health certificate provided by the breeder. Upon receipt, the state of health and sex was checked. Animals acclimatized for at least 5 days before the commencement of the in-life phase. During acclimation, animals were group-housed in individually ventilated cages, on birch wood granulate bedding with species-specific enrichment (nesting material, mouse igloo, gnawing wood). During experimental conduct, animals were housed in conventional cages with elevated grid floors. Grid floor was used to avoid contamination with test item material excreted via urine and feces and subsequent reuptake during fur grooming. No bedding and enrichment were provided except a cage divider, which can be used as a shelter. Animals always had unlimited access to food and water and received a pelleted, total pathogen-free maintenance diet and tap drinking water, sterilized by filter.
In case of incomplete dissolution, the formulation was filtered at 40 °C (non-pyrogenic sterile-R filter, 0.2 µm). All formulations were stirred warm until administration. Actual test item content was determined bioanalytically.
Male BALB/cAnNCrl mice (n = 3 per test item and administration route) received a bolus dose of the formulated test item(s) (1 mg/kg iv, 30 mg/kg po) at t = 0 h, and whole blood samples were collected subsequently (35 µl at 0.1 (iv) / 0.25 (po), 0.5, 1, 2, 4, 6 h; 600 µl at sacrifice after 24 h). Animals were euthanized by exsanguination in deep isoflurane anesthesia. Whole blood samples were immediately stored on ice at about 4 °C. Plasma was separated by centrifugation at approximately 10,000 × g for 5 m at +4 °C. Centrifugation of each blood sample was started within 10 m after collection. A single aliquot of at least 15 µL of plasma was prepared and immediately stored at −20 ± 5 °C.
Sample proteins were precipitated with ACN (1 + 12, v/v) containing internal standard, and supernatants analyzed by quantitative UPLC-MS/MS: Phenomenex Luna Omega C18, 2.1 × 50 mm, 1.6 µm, 40 °C, gradient between 10% - 90% ACN with 0.1% formic acid. LogD determination: Lipophilicity of the test items, expressed as chromLogD7.5, was assessed by measuring their chromatographic retention times on C18-material. The chromatographic retention versus logD7.5 values of a series of thirteen n-alkan-2-ones (2-butanone – 2-hexadecanone) served as lipophilicity calibration.

[2] = Microsomal stability, human; assay type: in vitro ADME
Procedure, shortened: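 1 µmol/l cpd + 0.5 mg/ml microsomes, Tris-HCl 100 mM pH 7.5 / MgCl2 6.5 mM / NADPH 1 mM, 37 °C. Timed acetonitrile quench, spin, supernatant by HPLC-MS/MS. t1/2 from first-order decay → clearance %Qh, well-stirred model.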

[3] = tested on: non-replicating cells of Mtb H37Rv; assay type: cell-based, Mycobacterium tuberculosis; details: three replicate columns
Mtb (moxR) FNDR-M1 = assay: microbe, parasite or virus in culture; assay type: cell-based
Enterococcus faecium = assay: MIC ESKAPES panel, Enterococcus faecium; assay type: cell-based; details: Enterococcus faecium
Experimental: (§1) Minimum inhibitory concentration (MIC) against ESKAPES panel of Gram positive and Gram negative pathogens (Enterococcus faecium, Staphylococcus aureus, Klebsiella pneumoniae, Acinetobacter baumannii, Pseudomonas aeruginosa, Enterobacter cloacae and Salmonella typhimurium [ESKAPES panel]) were determined at the FNDR by the standard broth dilution method [CLSI, M100]. […] Mueller Hinton broth (MHB) medium was used to grow ESKAPES panel strains. The individual cultures were added as 200 μL (inoculum of 3–7 × 10^5 cfu/ml) to the respective assay plates in each well to all columns, except the media control (200 μL of medium). […] The assay plates were incubated at 37 °C, and the results were noted on the 2nd day as turbidometric readout. The clear wells indicated inhibition of growth, while the turbid wells indicated uninhibited growth.

Klebsiella pneumoniae = assay: MIC ESKAPES panel, Klebsiella pneumoniae; assay type: cell-based; details: Klebsiella pneumoniae
Experimental: as §1

[4] = iv bolus, individual animals 1-3
[5] = iv bolus, mice, Mean, BLOQ <1.00 nmol/l
[6] = male, BALB/cAnNCrl, mouse, in vivo, iv, 0.0677 umol/kg, iv bolus, individual animals 1-3
[7] = male, BALB/cAnNCrl, mouse, in vivo, iv, 0.0677 umol/kg, iv bolus, mice, Mean

Chain of His6-tagged ClpC1-NTD substrate, M. smegmatis ClpC1P1P2 (P9WPC9 1-156, looked up, natural form): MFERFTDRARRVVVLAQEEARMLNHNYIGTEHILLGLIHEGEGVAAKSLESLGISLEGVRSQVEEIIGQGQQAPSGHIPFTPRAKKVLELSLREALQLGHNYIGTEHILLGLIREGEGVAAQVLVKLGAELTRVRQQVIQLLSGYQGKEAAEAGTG
Chain of His6-tagged ClpC1-NTD substrate, M. smegmatis ClpC1P1P2 (A0R574 whole entry): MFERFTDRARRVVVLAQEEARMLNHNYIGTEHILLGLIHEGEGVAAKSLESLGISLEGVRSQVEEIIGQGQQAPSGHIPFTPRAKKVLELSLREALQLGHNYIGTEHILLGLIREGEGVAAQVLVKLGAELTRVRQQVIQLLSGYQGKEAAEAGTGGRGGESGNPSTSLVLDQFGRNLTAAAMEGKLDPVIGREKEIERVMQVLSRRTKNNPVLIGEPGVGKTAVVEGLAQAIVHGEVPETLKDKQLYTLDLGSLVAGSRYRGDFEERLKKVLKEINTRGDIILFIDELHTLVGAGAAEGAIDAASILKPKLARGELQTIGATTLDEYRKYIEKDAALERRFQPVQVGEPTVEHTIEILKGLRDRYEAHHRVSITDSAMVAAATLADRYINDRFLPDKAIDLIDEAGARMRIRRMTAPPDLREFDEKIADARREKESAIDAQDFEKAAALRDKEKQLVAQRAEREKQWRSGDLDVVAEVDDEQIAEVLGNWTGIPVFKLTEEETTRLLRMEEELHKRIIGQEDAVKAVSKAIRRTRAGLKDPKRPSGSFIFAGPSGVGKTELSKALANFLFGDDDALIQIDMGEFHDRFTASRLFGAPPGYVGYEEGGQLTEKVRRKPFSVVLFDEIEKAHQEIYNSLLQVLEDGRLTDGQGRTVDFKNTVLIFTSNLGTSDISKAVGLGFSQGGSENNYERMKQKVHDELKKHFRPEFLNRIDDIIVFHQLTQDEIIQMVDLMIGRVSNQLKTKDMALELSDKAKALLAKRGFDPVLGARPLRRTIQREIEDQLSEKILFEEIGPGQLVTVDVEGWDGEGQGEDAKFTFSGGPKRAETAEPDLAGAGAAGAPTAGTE

For `CO[C@H](c1ccccc1)[C@@H]1NC(=O)[C@H](C)NC(=O)[C@H](C[C@@H](C)CO)N(C)C(=O)[C@H](Cc2cn(Cc3cn(CCOCCn4cc(Cn5cc(C[C@@H]6NC(=O)[C@H](C(C)C)NC(=O)[C@H](CC(C)C)N(C)C(=O)[C@H](C(C)C)NC(=O)[C@H]([C@H](OC)c7ccccc7)NC(=O)[C@H](C)NC(=O)[C@H](C[C@@H](C)CO)N(C)C6=O)c6ccccc65)nn4)nn3)c3ccccc23)NC(=O)[C@H](C(C)C)NC(=O)[C@H](CC(C)C)N(C)C(=O)[C@H](C(C)C)NC1=O` [Compound 6], the MIC (Msm 700084) was 20.8 ± 15.1 µM (≈ 42.4 µg/mL), the “1-Dmax, single measurements” value ([1]; Measurement 1-6) was 73.6% and 67.7% and 87.3% and the 1-Dmax (percent substrate remaining at maximal degradation) ([1]; Measurement 1-6, read-out: 1-Dmax, single measurements) was 83.7%. For the same compound, the 1-Dmax (percent substrate remaining at maximal degradation) ([1]; mean of the measurements, read-out: 1-Dmax, Mean) was 78%, the DC50 ([1]; mean of the measurements, read-out: DC50, Mean) was 7.5 µM and the Cmax (in vivo; dose-normalized, mice, 1 mg kg-1 iv bolus) was 1820 nM/(nmol kg-1). The AUC0-inf/Dose (in vivo; [4]) was 3260 h nM/(nmol kg-1) and 5150 h nM/(nmol kg-1) and 5870 h nM/(nmol kg-1), the AUC0-t/Dose (in vivo; [4]) was 2600 h nM/(nmol kg-1) and 5020 h nM/(nmol kg-1) and 5730 h nM/(nmol kg-1) and the CL (in vivo; [4]) was 3.2 mL/min/kg and 2.8 mL/min/kg. For the same compound, the “CL PL QH” value (in vivo; [4]) was 5.7% and 3.6% and 3.2%, the MRT (in vivo; [4]) was 5.1 h and 5.3 h and the “Plasma concentration 0.1 h” value (in vivo; [4]) was 128 nM and 127 nM and 114 nM. For the same compound, the “Plasma concentration 0.5 h” value (in vivo; [4]) was 47.9 nM and 51.6 nM and 58 nM, the “Plasma concentration 1 h” value (in vivo; [4]) was 44.8 nM and 45.0 nM and 44.5 nM and the “Plasma concentration 2 h” value (in vivo; [4]) was 32.5 nM and 36.4 nM and 39.6 nM. The “Plasma concentration 4 h” value (in vivo; [4]) was 17.3 nM and 22.2 nM and 13.8 nM, the Vss (in vivo; [4]) was 1.0 L/kg and 0.9 L/kg and the t1/2 (in vivo; [4]) was 4.8 h and 4.9 h. The “Plasma concentration 6 h” value (in vivo; iv bolus, individual animals 1-3, BLOQ <1.00 nmol/l) was 11.6 nM and 14.7 nM and 20.6 nM, the Cmax (in vivo; iv bolus, individual animals 1-3, read-out: Cmax) was 127 nM and 114 nM and the AUC0-inf/Dose (in vivo; iv bolus, mice, Mean) was 4760 h nM/(nmol kg-1). The AUC0-t/Dose (in vivo; iv bolus, mice, Mean) was 4450 h nM/(nmol kg-1), the “CL PL QH” value (in vivo; iv bolus, mice, Mean) was 4.1% and the “Plasma concentration 0.1 h” value (in vivo; iv bolus, mice, Mean) was 123 nM. The “Plasma concentration 0.5 h” value (in vivo; iv bolus, mice, Mean) was 52.5 nM, the “Plasma concentration 1 h” value (in vivo; iv bolus, mice, Mean) was 44.8 nM and the “Plasma concentration 2 h” value (in vivo; iv bolus, mice, Mean) was 36.2 nM. For the same compound, the “Plasma concentration 4 h” value (in vivo; iv bolus, mice, Mean) was 17.8 nM, the “Plasma concentration 6 h” value (in vivo; [5]) was 15.6 nM and the “Plasma concentration 24 h” value (in vivo; [5]) was 1.3 nM. The tmax (in vivo; male, BALB/cAnNCrl, mouse, in vivo, 0.0677 umol/kg, iv bolus, individual animals 1-3) was 6 min, the clearance (in vivo; [6]) was 5.1 mL/min/kg and the half-life (in vivo; [6]) was 2.7 h. It also gave a Cmax (in vivo; male, BALB/cAnNCrl, mouse, in vivo, iv, 0.0677 umol/kg, iv bolus, individual animals 1-3, read-out: Cmax) of 128 nM, an MRT (in vivo; male, BALB/cAnNCrl, mouse, in vivo, iv, 0.0677 umol/kg, iv bolus, individual animals 1-3, read-out: MRT) of 3.6 h and a Vd (in vivo; male, BALB/cAnNCrl, mouse, in vivo, iv, 0.0677 umol/kg, iv bolus, individual animals 1-3, read-out: Vss) of 1.1 L/kg. For the same compound, the clearance (in vivo; [7]) was 3.7 mL/min/kg, the half-life (in vivo; [7]) was 4.1 h and the Cmax (in vivo; male, BALB/cAnNCrl, mouse, in vivo, iv, 0.0677 umol/kg, iv bolus, mice, Mean, read-out: Cmax) was 123 nM. It also gave an MRT (in vivo; male, BALB/cAnNCrl, mouse, in vivo, iv, 0.0677 umol/kg, iv bolus, mice, Mean, read-out: MRT) of 4.7 h, a Vd (in vivo; male, BALB/cAnNCrl, mouse, in vivo, iv, 0.0677 umol/kg, iv bolus, mice, Mean, read-out: Vss) of 1 L/kg and a Vd (in vivo; male, BALB/cAnNCrl, mouse, in vivo, iv, 1 mg/kg, mice, 1 mg kg-1 iv bolus, read-out: VSS) of 0.95 L/kg. For the same compound, the clearance (in vivo; male, BALB/cAnNCrl, mouse, in vivo, iv, 1 mg/kg, plasma clearance, mice, 1 mg kg-1 iv bolus) was 3.73 mL/min/kg, the half-life (in vivo; male, BALB/cAnNCrl, mouse, in vivo, iv, 1 mg/kg, plasma, mice, 1 mg kg-1 iv bolus) was 3.33 h and the “Microsomal Stability Human QH” value ([2]; Human) was 69.600%. For the same compound, the “Microsomal Stability Human” value ([2]; clearance in microsomes) was 70 %Qh.

In the case of `COc1c(N2C[C@@H]3CCCN[C@@H]3C2)c(F)cc2c(=O)c(C(=O)O)cn(C3CC3)c12` [Moxifloxacin, reference compound], the “Supplementary Figure 2 dose-response value, starvation-induced non-replicating H37Rv cells” value ([3]; Conc. 0.0488281 µM) is reported as 96.0307 and 94.5408 and 97.6321, the “Supplementary Figure 2 dose-response value, starvation-induced non-replicating H37Rv cells” value ([3]; Conc. 0.0976562 µM) is reported as 87.2508 and 88.414 and 86.3824 and the “Supplementary Figure 2 dose-response value, starvation-induced non-replicating H37Rv cells” value ([3]; Conc. 0.195312 µM) is reported as 85.0837 and 87.4102 and 85.2989. The “Supplementary Figure 2 dose-response value, starvation-induced non-replicating H37Rv cells” value ([3]; Conc. 0.390625 µM) was 85.4263 and 85.2112 and 85.8964, the “Supplementary Figure 2 dose-response value, starvation-induced non-replicating H37Rv cells” value ([3]; Conc. 0.78125 µM) was 82.9485 and 82.598 and 80.152 and the “Supplementary Figure 2 dose-response value, starvation-induced non-replicating H37Rv cells” value ([3]; Conc. 1.5625 µM) was 77.7618 and 79.2358 and 77.6503. For the same compound, the “Supplementary Figure 2 dose-response value, starvation-induced non-replicating H37Rv cells” value ([3]; Conc. 3.125 µM) was 77.3794 and 79.3075 and 79.2756, the “Supplementary Figure 2 dose-response value, starvation-induced non-replicating H37Rv cells” value ([3]; Conc. 6.25 µM) was 72.6389 and 74.9414 and 71.1889 and the “Supplementary Figure 2 dose-response value, starvation-induced non-replicating H37Rv cells” value ([3]; Conc. 25 µM) was 59.9471 and 62.2337 and 59.4213. For the same compound, the “Supplementary Figure 2 dose-response value, starvation-induced non-replicating H37Rv cells” value ([3]; Conc. 50 µM) was 60.21 and 62.4647 and 60.935, the “Supplementary Figure 2 dose-response value, starvation-induced non-replicating H37Rv cells” value ([3]; Conc. 100 µM) was 55.7882 and 57.6844 and 55.7723 and the MIC (Mtb (moxR) FNDR-M1; M. tuberculosis FNDR-M1, single well replicates) was 19.93 µM (≈ 8 µg/mL). The MIC (Mtb (moxR) FNDR-M1; Mycobacterium tuberculosis, M. tuberculosis FNDR-M1, single well replicates) was 19.9 µM (≈ 8 µg/mL), the MIC (Mtb (moxR) FNDR-M1; Mycobacterium tuberculosis, Mtb (moxR) FNDR-M1, mean ± SD, n = 3 well replicates) was 19.9 µM (≈ 7.99 µg/mL) and the MIC (Enterococcus faecium; Gram positive, n = 3 well replicates) was 79.7 µM (≈ 32 µg/mL). For the same compound, the MIC (Enterococcus faecium; Gram-Positive Bacteria, replicates 1-3) was 79.7 µM and 32 µg/mL, the MIC (Klebsiella pneumoniae; Gram negative, n = 3 well replicates) was 1.3 µM (≈ 0.522 µg/mL) and the MIC (Klebsiella pneumoniae; Gram-Negative Bacteria, replicates 1-3) was 1.25 µM and 0.5 µg/mL.
